Patent US5843969A, “Protecting agent for organ or tissue” (Teijin Limited, priority 1995, dated 1998)

Columns and labels:
rats = assay: acute toxicity test, single oral administration in rats; assay type: in vivo, rat; conditions: single oral administration up to 300 mg/kg
Description: Further, for the safety evaluation of the agent of the present invention, an acute toxicity test is carried out with rats in terms of 2-(3-cyano-4-isobutyloxyphenyl)-4-methyl-5-thiazolecarboxylic acid as the active component.

[1] = tested on: ischemia-reperfusion injury model of kidney; assay: renal ischemia-reperfusion injury model in rats, serum creatinine (Cre) level; assay type: in vivo, SD rat; conditions: 50 mg/kg oral 60 min prior to 60-min ischemia; 24-hour reperfusion; mean ± standard deviation; control 3.6±0.4, sham 0.4±0.0; p<0.05 vs control
Description: (§1) An ischemia-reperfusion injury model of kidney for studying effect on the ischemia-reperfusion injury was prepared with a rat as shown below, and the effect of the administration of the active component of the agent of the present invention was studied by using the model animal.
(§2) The abdomen of an SD rat (male, 6 weeks of age) was opened under anesthesia with sodium pentobarbital, the separated left and right renal arteries were clamped with arterial clips to block the blood flow completely, and the kidneys were brought into an ischemic state. After 60-minute ischemia, the artery clamps were released, and blood flow was restarted to bring the kidneys to a reperfused state. After the suture of the opened abdomen, the animal was returned to a cage and allowed to have free access to food and water. […]
(§3) Serum was separated from the obtained blood sample by centrifugation. Blood urea nitrogen (BUN) level and serum creatinine (Cre) level, a parameter for kidney function injury, were determined on the serum using an automated analyzer (Hitachi 7070) by an urease-indophenol method and Jaffe method, respectively.
(§4) 2-(3-Cyano-4-isobutyloxyphenyl)-4-methyl-5-thiazolecarboxylic acid, the active component, was suspended in a 0.5% methylcellulose aqueous solution. […] The results were each expressed as the mean ± standard deviation. […]

[2] = tested on: ischemia-reperfusion injury model of kidney; assay: renal ischemia-reperfusion injury model in rats, serum BUN level; assay type: in vivo, SD rat; conditions: 50 mg/kg oral 60 min prior to 60-min ischemia; 24-hour reperfusion; compared with control group (FIG. 2)
Description: as §1, §2, §3, §4

RBL-1 cells = assay: leukotriene B4 production in cultured RBL-1 cells (A23187 stimulated, enzyme immunoassay); assay type: cell-based
Description: RBL-1 cells (Dainippon Pharmaceutical Co.) were cultured in a Dulbecco's Modified Eagle's Medium containing fetal bovine serum in an amount of 10%. The cultured cells were adjusted to 5×10^6 cells/ml. […] After incubated at 37° C. for 5 min, this was immersed into ice and kept for 10 min. Subsequently, 2×10^-5 mol of A23187, Ca-ionophore, was added to the chilled cell suspension to make the final concentration of […], and the cell suspension was incubated again at 37° C. for 15 min. Further, the suspension was held in ice for 10 min. The suspension was subjected to centrifugation at 3000 rpm for 10 min and the cells were removed. Leukotriene B4 (LTB4) level in the supernatant was measured by enzyme immunoassay. […] A significant difference test against the control group was carried out using Bonferroni's test of a multiple comparison.

DNFB-sensitized mice [3] = assay: survival rate in DNFB-sensitized mice (allergic dermatitis model); assay type: in vivo, BALB/c mouse; conditions: 3, 10, 30 and 100 mg/kg/day oral; up to 6th day after final sensitization (FIGS. 4A and 4B)
Description: (§5) Therefore, the presence of such side effects was examined on the active component of the agent of the present invention by using a mouse allergic dermatitis model.
(§6) Hair was removed from the abdomen to the breast of a BALB/c mouse (male, 8 weeks of age) with hair clippers and a shaver. A 0.5% dinitro-fluorobenzene (DNFB) ethanol solution (100 μl head/day) was applied on the hair-removed part one day and two days after the removal of hair to establish sensitization. 2-(3-Cyano-4-isobutyloxyphenyl)-4-methyl-5-thiazolecarboxylic acid, the active component of the present invention, and allopurinol are each suspended in a 0.5% methylcellulose aqueous solution. Each suspension (3, 10, 30 and 100 mg/kg/10 ml/day) was orally administered to an animal at the same time of each DNFB sensitization. […]
(§7) The variations with time of the survival rate and the body weights of the mice administered with the agents were followed up to the 6th day after the final sensitization and recorded. […] The ear thicknesses were measured with a dial thickness gauge (Ozaki Seisakusho, G-1A) before the elicitation, and 24 hr and 48 hr after the elicitation.
(§8) The variations of the body weights and the ear thicknesses were expressed as the mean ± standard deviation for each group. […]

DNFB-sensitized mice [4] = assay: body weight in DNFB-sensitized mice (allergic dermatitis model); assay type: in vivo, BALB/c mouse; conditions: survived animals
Description: as §5
Hair was removed from the abdomen to the breast of a BALB/c mouse (male, 8 weeks of age) with hair clippers and a shaver. A 0.5% dinitro-fluorobenzene (DNFB) ethanol solution (100 μl head/day) was applied on the hair-removed part one day and two days after the removal of hair to establish sensitization. 2-(3-Cyano-4-isobutyloxyphenyl)-4-methyl-5-thiazolecarboxylic acid, the active component of the present invention, and allopurinol are each suspended in a 0.5% methylcellulose aqueous solution. Each suspension (3, 10, 30 and 100 mg/kg/10 ml/day) was orally administered to an animal at the same time of each DNFB sensitization. The number of animals is 8 for each of a 3- and a 10-mg/kg/10 ml/day group, and 10 for each of a 30- and a 100-mg/kg/10 ml/day group in each of the active component and the allopurinol. As the control group, 10 ml/kg of 0.5% methylcellulose aqueous solution, the solvent for the active component and allopurinol, was administered to each of 8 sensitized animals.
The variations with time of the survival rate and the body weights of the mice administered with the agents were followed up to the 6th day after the final sensitization and recorded. For survived sensitized animals, a 0.3% DNFB acetone-olive oil (4:1) mixed solution (10 μl on each of the obverse and the reverse side of an ear) was applied on one ear to elicit an immune reaction and an acetone-olive oil (4:1) mixed solution (10 μl on each of the obverse and the reverse side of an ear) was applied on the other ear on the sixth day after the final sensitization. The ear thicknesses were measured with a dial thickness gauge (Ozaki Seisakusho, G-1A) before the elicitation, and 24 hr and 48 hr after the elicitation.
as §8

DNFB-sensitized mice [5] = assay: ear thickness after elicitation of immune reaction in DNFB-sensitized mice; assay type: in vivo, BALB/c mouse
Description: as §5, §6, §7, §8

[6] = clinical application; The Journal of Medicine 1984; The Annals of Pharmacotherapy 1993; cited from earlier work

SMILES	death of rats (rats)	serum Cre level [1] [mg/dL]	serum BUN level [2]	LTB4 production (RBL-1 cells; 1×10^-8 mol (final concentration of 10 μM), p<0.001 vs control (FIG. 3))	survival rate (DNFB-sensitized mice [3])	body weight change (DNFB-sensitized mice [4]; 3, 10, 30 and 100 mg/kg/day oral, up to 6th day after final sensitization (FIG. 5A))	increase of the ear thickness (DNFB-sensitized mice [5]; 3, 10, 30 and 100 mg/kg/day oral, 24 hr and 48 hr after elicitation (FIG. 6))	LTB4 production (RBL-1 cells; up to 1×10^-8 mol (final concentration of up to 10 μM) (FIG. 3))	body weight change (DNFB-sensitized mice [4]; 30 mg/kg oral, p<0.01 vs control (FIG. 5B))	body weight change (DNFB-sensitized mice [4]; 100 mg/kg oral, p<0.05 vs control (FIG. 5B))	increase of the ear thickness and allergy reaction (DNFB-sensitized mice [5]; 30 mg/kg oral, after elicitation, p<0.05 vs control (FIG. 6))	side effects [6]
Cc1nc(-c2ccc(OCC(C)C)c(C#N)c2)sc1C(=O)O [2-(3-cyano-4-isobutyloxyphenyl)-4-methyl-5-thiazolecarboxylic acid]	None of rats died	2.3 ± 1.1	exhibited a tendency to suppress the increase of the serum BUN	suppresses the production of LTB4 significantly	all animals were survived, excluding one animal of the 100 mg/kg/day group	did not produce a significant change on the body weights of the animals	none of the effect in terms of the increase of the ear thicknesses was observed	–	–	–	–	–
Oc1ncnc2[nH]ncc12 [allopurinol, reference compound]	–	–	–	–	survival rate decreased dose-dependently with time from a low dose level	–	–	had no effect on the production	decreased the body weights of the animals significantly	decreased the body weights of the animals significantly	stimulated the increase of the ear thicknesses, and the allergy reaction significantly	side effects including an allergy reaction during clinical application and occasionally the side effect is so severe that the patient is brought to death
